Read-outs that look alike come from different tables or passages of the source.
Tests used:
[1] = molecular target: T1, SGLT2 (Homo sapiens, UniProt P31639); experiment: Recovery of SGLT2 activity after washout following 24 h exposure in CHO-SGLT2 cells; type: cell-based
T1 construct: host or cells: CHO
T1 sequence (P31639 1-672): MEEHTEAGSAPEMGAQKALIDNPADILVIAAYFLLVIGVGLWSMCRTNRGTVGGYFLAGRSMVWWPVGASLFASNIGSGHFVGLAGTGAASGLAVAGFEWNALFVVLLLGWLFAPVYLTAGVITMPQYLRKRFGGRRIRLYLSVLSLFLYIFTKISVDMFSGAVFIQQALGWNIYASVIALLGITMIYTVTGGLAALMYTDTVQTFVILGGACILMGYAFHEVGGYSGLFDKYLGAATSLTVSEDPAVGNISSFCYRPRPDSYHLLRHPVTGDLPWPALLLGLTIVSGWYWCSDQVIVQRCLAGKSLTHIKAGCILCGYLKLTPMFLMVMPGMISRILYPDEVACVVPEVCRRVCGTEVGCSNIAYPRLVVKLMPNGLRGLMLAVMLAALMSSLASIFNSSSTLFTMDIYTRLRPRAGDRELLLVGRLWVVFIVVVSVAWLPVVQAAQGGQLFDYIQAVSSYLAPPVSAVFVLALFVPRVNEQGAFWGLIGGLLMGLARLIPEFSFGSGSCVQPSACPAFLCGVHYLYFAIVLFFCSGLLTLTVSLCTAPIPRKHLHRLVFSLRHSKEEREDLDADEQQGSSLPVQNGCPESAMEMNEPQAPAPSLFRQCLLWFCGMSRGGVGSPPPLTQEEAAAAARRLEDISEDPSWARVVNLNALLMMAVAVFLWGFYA
Method: After 24 h, the RPMI1640 medium was replaced with pre-warmed fresh RPMI1640 medium and incubated for 1, 2, 3, 5, and 6 h, and proceeded another pre-incubation with Na^+-free buffer for 1 h. Then, after replacing Na^+-free buffer with Na^+ gradient buffer containing 10 µM [^14C]AMG, the uptake of [^14C]AMG into the CHO-SGLT2 cells was measured for 2 h. After 2 h of incubation, the radioactivity of the cell lysate was measured following the same sample preparation method described above.

[2] = mouse, in vivo, po, 1 mg/kg
Method: (§1) An aliquot (30 µL) of each plasma sample was stored at −80 °C until the analysis. […] An aliquot (50 µL) of each kidney homogenate sample was stored at −80 °C until the analysis.
(§2) For the analysis of SGLT2 inhibitors, aliquots of plasma (30 µL) and kidney homogenate (50 µL) were added to 100 μL of aqueous solution of D4-DWP16001 (IS, 20 ng/mL), and vigorously mixed with 500 μL methyl tert-butyl ether (MTBE) for 15 min. After centrifugation at 16,000 g for 5 min, samples were kept for 1 h at −80 °C to make an aqueous layer freeze. An organic upper layer was transferred to a clean tube and evaporated to dryness under a gentle stream of nitrogen. Then, the dried extract was reconstituted in 150 µL of mobile phase, and a 3 µL aliquot of the reconstituent was injected into a liquid chromatography–tandem mass spectrometry (LC–MS/MS) system.
(§3) Pharmacokinetic parameters, such as the area under plasma concentration-time curve from zero to infinity (AUC), were calculated from plasma concentration vs time curves using non-compartment analysis with WinNonlin (version 5.1; Pharsights, Cary, NC, USA). The AUC ratios (i.e., ratios of kidney AUC to plasma AUC) were calculated by dividing the AUC of the three SGLT2 inhibitors in the kidney by the plasma AUC values of the three SGLT2 inhibitors.

[3] = molecular target: T1, SGLT2; conditions: read-out: IC50 values of previous reports; cited from earlier work
[4] = design: method as in PMID 27430987; conditions: cited from earlier work
[5] = in vivo; conditions: ICR, mouse, po, 1 mg/kg
Method: as §1, §2, §3

[6] = physchem
[7] = logP (partition coefficient of n-octanol/water)
[8] = Protein binding in mouse plasma (rapid equilibrium dialysis); conditions: 1000 ng/mL, 4 h at 37 °C, mean ± SD, triplicate
Method: (§4) Four hours after incubation at 37 °C on a shaking incubator at 300 rpm, aliquots (50 μL) were collected from both the sample and buffer chambers and treated with equal volumes of fresh PBS and blank plasma or blank kidney homogenate, respectively, to match the sample matrices. The matrix-matched sample (100 μL) was added 100 μL of aqueous solution of D4-DWP16001 (IS, 20 ng/mL), and vigorously mixed with 1000 μL MTBE for 15 min. After centrifugation at 16,000 g for 5 min, samples were kept for 1 h at −80 °C. An organic upper layer was transferred to a clean tube and evaporated to dryness under a gentle stream of nitrogen. Then, the dried extract was reconstituted in 300 µL of mobile phase and a 3 µL aliquot of the reconstituent was injected into the LC-MS/MS system.
Plasma protein binding was calculated using the following Equation (1) [6, 7]. (1) Undiluted free drug fraction (fu)=Drug concentration in buffer chamber/Drug concentration in plasma sample chamber

[9] = Protein binding in 20% mouse kidney homogenate (rapid equilibrium dialysis); conditions: corrected for dilution, 1000 ng/mL, 4 h at 37 °C, mean ± SD, triplicate
Method: as §4
Kidney protein binding was calculated using the following equations, Equations (2) and (3), and a dilution factor (D as a value of 5) for tissue homogenates was used since we used 20% kidney homogenates [6, 7]. (2) Diluted free drug fraction (fu′)=Drug concentration in buffer chamber/Drug concentration in kidney homogenate chamber, (3) Undiluted free drug fraction (fu)=1/D/(1/fu^′−1)+1/D=fu′×0.2/1−fu′×0.8.

[10] = Pharmacokinetic study and kidney distribution after single oral administration in ICR mice
Method: as §1, §2, §3

[11] = ICR, mouse, plasma, po, 1 mg/kg

OC[C@H]1O[C@@H](c2ccc(F)c(Cc3cc4ccccc4s3)c2)[C@H](O)[C@@H](O)[C@@H]1O [Ipragliflozin, ipragliflozin]
Time after drug removal to recovery of SGLT2 activity to the control level ([1]; 0.2–200 nM): 4 h | AUC72h [2]: 73.65 ± 7.05 μg∙h/g tissue | IC50 [3]: 6.75 to 8.07 nM | Duration of increased urinary glucose excretion post dose [4]: ≥ 18 h | AUC(0-inf) [5]: 1970 ± 410 ng·h/mL | AUC(0-t) [5]: 1960 ± 410 ng·h/mL | Cmax [5]: 410 ± 59.1 ng/mL | Kp [5]: 38.4 ± 5.3 | Tmax [5]: 0.6 ± 0.2 h | logP [6]: 2.56

OC[C@H]1O[C@@H](c2cc(Cc3ccc(C4CC4)cc3)c(Cl)c3c2CCO3)[C@H](O)[C@@H](O)[C@@H]1O [DWP16001]
Time after drug removal at which SGLT2 activity had not recovered ([1]; 200 nM): 8 h | logP [7]: 2.65 | Protein Binding (% Bound) Plasma [8]: 98.50 ± 0.20 % Bound | Protein Binding (% Bound) Kidney [9]: 97.24 ± 0.08 % Bound | Kp ([10]; ICR, mouse, kidney homogenate and plasma, po, 1 mg/kg): 85 ± 16.1 | half-life ([10]; ICR, mouse, kidney, po, 1 mg/kg, t1/2, kidney, single oral 1 mg/kg, ICR mice, mean ± SD, five mice): 126 ± 80.4 h | AUC(0-inf) [10, 11]: 1730 ± 340 ng·h/mL | AUC(0-t) [10, 11]: 1690 ± 340 ng·h/mL | Cmax [10, 11]: 371 ± 109 ng/mL | Tmax [10, 11]: 0.7 ± 0.3 h | half-life ([10]; ICR, mouse, plasma, po, 1 mg/kg, t1/2, plasma, single oral 1 mg/kg, ICR mice, mean ± SD, five mice): 3.8 ± 1.4 h | AUC72h ([10]; kidney, single oral 1 mg/kg, ICR mice, mean ± SD, five mice): 139.2 ± 5.19 μg∙h/g tissue

Source: PMC7151106 (Pharmaceutics, 2020)
